Each structure is given as a SMILES string.

The target of assay [1] is T1, recombinant α1a-adrenoceptor (Homo sapiens, UniProt P35348).
T1 construct: expressed in transfected cells
T1 sequence (P35348 1-466): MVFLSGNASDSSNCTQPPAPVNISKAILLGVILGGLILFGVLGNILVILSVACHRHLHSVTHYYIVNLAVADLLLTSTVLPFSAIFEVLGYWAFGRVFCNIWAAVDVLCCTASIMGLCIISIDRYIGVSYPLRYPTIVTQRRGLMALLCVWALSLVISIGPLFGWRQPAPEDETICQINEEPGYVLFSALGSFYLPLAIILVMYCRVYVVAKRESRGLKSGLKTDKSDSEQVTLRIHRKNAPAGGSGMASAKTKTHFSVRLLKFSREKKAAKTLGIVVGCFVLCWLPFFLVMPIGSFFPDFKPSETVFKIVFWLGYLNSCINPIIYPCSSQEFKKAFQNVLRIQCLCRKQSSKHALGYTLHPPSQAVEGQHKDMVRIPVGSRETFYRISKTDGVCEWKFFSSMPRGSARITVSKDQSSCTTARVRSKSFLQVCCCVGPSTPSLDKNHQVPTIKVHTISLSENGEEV
The assay can be described thus: Radioligand binding ([3H]prazosin) to cloned α1a adrenoceptor. To be noted: read-out: Affinity (Ki) α1a. The protocol: (§1) Determination of affinity for cloned subtypes of the α1-adrenoceptor was performed in membranes from cells transfected by electroporation with DNA expressing the genes encoding each α1-adrenoceptor subtype.
(§2) Non-specific binding was determined in the presence of 10 μM phentolamine. Incubation was stopped by addition of ice-cold Tris buffer and rapid filtration through Schleicher & Schuell GF52 filters that had been pretreated with 0.2%-polyethyleneimine.
(§3) Data were expressed as mean of Ki.

Assay [2] addresses T2, recombinant α1b-adrenoceptor (Homo sapiens, UniProt P35368).
T2 construct: expressed in transfected cells
T2 sequence (P35368 1-520): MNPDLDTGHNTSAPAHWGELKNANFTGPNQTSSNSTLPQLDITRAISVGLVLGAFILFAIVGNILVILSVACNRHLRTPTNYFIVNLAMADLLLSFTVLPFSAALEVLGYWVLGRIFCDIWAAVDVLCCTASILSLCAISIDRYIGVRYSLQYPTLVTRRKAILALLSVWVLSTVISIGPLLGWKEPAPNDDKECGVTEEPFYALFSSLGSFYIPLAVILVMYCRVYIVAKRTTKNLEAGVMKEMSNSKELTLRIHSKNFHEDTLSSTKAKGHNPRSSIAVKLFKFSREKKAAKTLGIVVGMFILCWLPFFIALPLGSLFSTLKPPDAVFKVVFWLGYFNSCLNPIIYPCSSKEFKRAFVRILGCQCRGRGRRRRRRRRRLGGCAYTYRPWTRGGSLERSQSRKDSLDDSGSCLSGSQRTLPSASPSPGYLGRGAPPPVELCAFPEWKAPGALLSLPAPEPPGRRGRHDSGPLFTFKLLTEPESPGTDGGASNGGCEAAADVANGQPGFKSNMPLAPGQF
Put plainly: Radioligand binding ([3H]prazosin) to cloned α1b adrenoceptor. Conditions: read-out: Affinity (Ki) α1b. The protocol:
as §1, §2, §3

In assay [3] the target is T3, human 5-HT1A-serotoninergic receptor (Homo sapiens, UniProt P08908).
T3 construct: expressed in transfected cells; host or cells: HeLa
T3 sequence (P08908 1-422): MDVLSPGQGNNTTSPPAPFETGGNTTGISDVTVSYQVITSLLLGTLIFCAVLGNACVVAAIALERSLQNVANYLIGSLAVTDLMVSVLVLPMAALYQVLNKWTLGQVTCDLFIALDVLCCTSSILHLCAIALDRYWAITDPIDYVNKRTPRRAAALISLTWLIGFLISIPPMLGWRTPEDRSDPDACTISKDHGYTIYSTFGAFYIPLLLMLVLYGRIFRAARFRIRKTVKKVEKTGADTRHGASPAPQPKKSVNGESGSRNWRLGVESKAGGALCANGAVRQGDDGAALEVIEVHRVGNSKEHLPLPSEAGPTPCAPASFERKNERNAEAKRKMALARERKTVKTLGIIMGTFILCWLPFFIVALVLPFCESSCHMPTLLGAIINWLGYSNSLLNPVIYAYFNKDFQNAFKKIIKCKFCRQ
Put plainly: Radioligand binding ([3H]8-OH-DPAT) to cloned 5-HT1A receptor in HeLa cell membranes. Conditions: read-out: Affinity (Ki) 5-HT1A. On the procedure: HeLa cells were grown as monolayers in Dulbecco's modified Eagle's medium (DMEM), supplemented with 10% fetal calf serum and gentamicin (100 μg/mL), at 37° C. in 5% CO2. The cells were detached from the growth flask at 95% confluence by a cell scraper and were lysed in a buffer containing ice cold 5 mM Tris, 5 mM EDTA (pH 7.4). The homogenates were centrifuged at 40,000×g for 20 minutes and the membranes were resuspended in a small volume of ice-cold buffer containing 5 mM Tris and 5 mM, EDTA (pH 7.4), and immediately frozen and stored at −70° C. until use.
Non-specific binding was determined in the presence of 10 μM 5-HT. Incubation was stopped by addition of ice-cold Tris buffer and rapid filtration through Schleicher & Schuell GF52 filters that had been pretreated with 0.2%-polyethyleneimine.
as §3

Regarding `COc1ccccc1N1CCN(CCCNC(=O)c2csc3c(=O)cc(-c4ccccc4)oc23)CC1` [Example 2, N-{3-[4-(2-Methoxyphenyl)-1-piperazinyl]propyl}-7-oxo-5-phenyl-7H-thieno[3,2-b]pyran-3-carboxamide], the Ki in assay [1] amounted to 0.1 nM; in assay [2], 7.52 nM; in assay [3] it was 4.48 nM.

On to `O=C(NCCCN1CCN(c2ccccc2OCC(F)(F)F)CC1)c1csc2c(=O)cc(-c3ccccc3)oc12` [Example 5, 7-Oxo-5-phenyl-N-{3-[4-[2-(2,2,2-trifluoroethoxy)phenyl]-1-piperazinyl]propyl}-7H-thieno[3,2-b]pyran-3-carboxamide], for which the Ki in assay [1] was 0.045 nM; in assay [2], 4.34 nM; in assay [3], 7.59 nM.

As a reminder, the Ki is the dissociation constant of the complex between target and ligand, obtained from inhibition or displacement.

These data come from patent publication US6387909B1, “Thienopyranecarboxamide derivatives” (Recordati S.A. Chemical and Pharmaceutical Company, priority 1999, dated 2002).
